Experimental data published in patent publication EP1282414B1, “FELBAMATE DERIVED COMPOUNDS FOR TREATING NEUROPATHIC PAIN” (University of Virginia Patent Foundation, priority 2000, dated 2001).

Key:
[1] = test system: MES-induced seizure spread; assay: Maximal Electroshock Seizure (MES) test, mice i.p.; type: in vivo; conditions: for MES, number of animals protected / total number of animals tested: mice i.p.
Excerpt: (§1) The fluoro derivatives synthesized were submitted to the National Institute of Neurological Disorders and Stroke (NINDS) for evaluation in a standard panel of assays. Two convulsant tests (MES and scMET), and a toxicity screen (rotorod in mice, positional sense and gait in rats) were employed for evaluating the compounds activity as neuroprotecting agents. These testing procedures are described in detail in Molecular and Cellular Targets for Anti-epileptic Drugs, eds. G. Avanzini, G. Regesta, P. Tanganelli, M. Avoli, 1997, John Libbey & Company Ltd, pp 191-198. The felbamate derivatives were evaluated for anticonvulsant activity following intraperitoneal (i.p.) administration in mice and oral administration in rats.
The MES test is a model for generalized tonic-clonic seizures and is used to identify compounds which prevent seizure spread. The behavioral and electrographic seizures generated in this model are consistent with the human disorder. In the MES test, an electrical stimulus of 0.2 s in duration (50 mA in mice and 150 mA in rat at 60Hz) was delivered via corneal electrodes primed with an electrolyte solution containing an anesthetic agent. […] Rats were tested at time intervals between 0.25 and 4 hours following a standard oral dose of 30 mg/kg. Abolition of the hindlimb tonic extensor component indicates the test compound's ability to inhibit MES-induced seizure spread.
(§2) For the MES and scMET tests the data is presented in the form of the number of animals protected by the administered compound / total number of animals tested. […] Qualitative data was obtained for fluoro felbamate 12 (Tables 1 and 2A), fluoro monocarbamate felbamate 13 (Tables 1 and 2B), and fluorodioxo 16 (Tables 1 and 2C) and for cyclic felbamate 21 (Tables 5 and 6B) and cyclic monocarbamate 22 (Tables 5 and 6A). More extensive quantitative data was also obtained for fluoro felbamate 12 in mice (Table 3) and rats (Table 4).

pentylenetetrazol = assay: Subcutaneous Metrazol seizure test (scMET), mice i.p.; type: in vivo, Carworth Farms No. 1 mice; conditions: mice i.p.
Excerpt: as §1
This is a model that primarily identifies compounds that raise seizure threshold. With some minor exceptions, the pharmacological profile of the scMET seizure model is consistent with the human condition. The scMET test utilizes a dose of pentylenetetrazol (85 mg/kg in Carworth Farms No. 1 mice and 70 mg/kg in Sprague-Dawley rats) that induces clonic seizures lasting for a period of at least five seconds in 97 % (CD97) of animals tested. At the anticipated time of testing the convulsant is administered subcutaneously. The test compound is administered intraperitoneally in mice and orally in rats. Animals are observed over a 30 minute period. Absence of clonic spasms in the observed time period indicates a compound's ability to abolish the effect of pentylenetetrazol on seizure threshold.
as §2

mice = assay: Minimal neurotoxicity (TOX), rotorod test, mice i.p.; type: in vivo; conditions: mice i.p.
Excerpt: as §1, with “G. Avanzini, G. Regesta, P. Tanganelli, M. Avoli, 1997, John Libbey & Company Ltd, pp 191-198.” left out, “rats. […]” for “rats.”

[2] = test system: MES-induced seizure spread; assay: Maximal Electroshock Seizure (MES) test, rats p.o.; type: in vivo, rat; conditions: for MES, number of animals protected / total number of animals tested: rat p.o., 30 mg/kg; for anti-seizure activity (in words): rats
Excerpt: as §1
The MES test is a model for generalized tonic-clonic seizures and is used to identify compounds which prevent seizure spread. The behavioral and electrographic seizures generated in this model are consistent with the human disorder. In the MES test, an electrical stimulus of 0.2 s in duration (50 mA in mice and 150 mA in rat at 60Hz) was delivered via corneal electrodes primed with an electrolyte solution containing an anesthetic agent. Mice were tested at 30 minutes and 4 hours following doses of 30, 100 and 300 mg/kg of test compound. Rats were tested at time intervals between 0.25 and 4 hours following a standard oral dose of 30 mg/kg. Abolition of the hindlimb tonic extensor component indicates the test compound's ability to inhibit MES-induced seizure spread.
as §2

rats = assay: Minimal neurotoxicity (TOX), positional sense and gait and stance tests, rats p.o.; type: in vivo; conditions: rat p.o., 30 mg/kg
Excerpt: as §1, with “G. Avanzini, G. Regesta, P. Tanganelli, M. Avoli, 1997, John Libbey & Company Ltd, pp 191-198.” left out
Rats are examined for behavioral toxicity by the positional sense test and a gait and stance test. […] In the gait and stance test, neurotoxicity is indicated by a circular or zigzag gait, ataxia, abnormal spread of the legs, abnormal posture, tremor hyperactivity, lack of exploratory behavior, somnolence, stupor or catalepsy. […]

Row | Structure (SMILES) | MES, number of animals protected / total number of animals tested ([1]; 30 mg/kg, 0.5h) | MES, number of animals protected / total number of animals tested ([1]; 30 mg/kg, 4.0h) | MES, number of animals protected / total number of animals tested ([1]; 100 mg/kg, 0.5h) | MES, number of animals protected / total number of animals tested ([1]; 300 mg/kg, 0.5h) | ScMET, number of animals protected / total number of animals tested (pentylenetetrazol; 30 mg/kg, 0.5h) | ScMET, number of animals protected / total number of animals tested (pentylenetetrazol; 100 mg/kg, 0.5h) | ScMET, number of animals protected / total number of animals tested (pentylenetetrazol; 300 mg/kg, 0.5h) | TOX, number of animals exhibiting toxic effects / total number of animals tested (mice; 30 mg/kg, 0.5h) | TOX, number of animals exhibiting toxic effects / total number of animals tested (mice; 100 mg/kg, 0.5h) | TOX, number of animals exhibiting toxic effects / total number of animals tested (mice; 300 mg/kg, 0.5h) | MES, number of animals protected / total number of animals tested ([2]; 0.25h) | MES, number of animals protected / total number of animals tested ([2]; 0.5h) | MES, number of animals protected / total number of animals tested ([2]; 1.0h) | MES, number of animals protected / total number of animals tested ([2]; 2.0h) | MES, number of animals protected / total number of animals tested ([2]; 4.0h) | TOX, number of animals exhibiting toxic effects / total number of animals tested (rats; 0.25h) | TOX, number of animals exhibiting toxic effects / total number of animals tested (rats; 0.5h) | TOX, number of animals exhibiting toxic effects / total number of animals tested (rats; 1.0h) | TOX, number of animals exhibiting toxic effects / total number of animals tested (rats; 2.0h) | TOX, number of animals exhibiting toxic effects / total number of animals tested (rats; 4.0h) | other results
1 | NC(=O)OCC(F)(CO)c1ccccc1 (stereo not shown) [fluoro monocarbamate felbamate, 2-Fluoro-2-phenyl-1,3-propanediol monocarbamate] | 0/1 | 0/1 | 2/3 | 1/1 | 0/1 | 0/1 | 1/1 | 0/4 | 3/8 | 2/4 | 0/4 | 3/4 | 0/4 | 1/4 | 0/4 | 0/4 | 0/4 | 0/4 | 0/4 | 0/4 | MES, number of animals protected / total number of animals tested ([1]; 100 mg/kg, 4.0h): 0/3; MES, number of animals protected / total number of animals tested ([1]; 300 mg/kg, 4.0h): 0/1; MES protection (in words) ([1]; mice, 100 mg/kg): moderate MES protection; ScMET, number of animals protected / total number of animals tested (pentylenetetrazol; 30 mg/kg, 4.0h): 0/1; ScMET, number of animals protected / total number of animals tested (pentylenetetrazol; 100 mg/kg, 4.0h): 0/1; ScMET, number of animals protected / total number of animals tested (pentylenetetrazol; 300 mg/kg, 4.0h): 0/1; TOX, number of animals exhibiting toxic effects / total number of animals tested (mice; 30 mg/kg, 4.0h): 0/2; TOX, number of animals exhibiting toxic effects / total number of animals tested (mice; 100 mg/kg, 4.0h): 0/4; TOX, number of animals exhibiting toxic effects / total number of animals tested (mice; 300 mg/kg, 4.0h): 0/2
2 | O=C1NC(O)C(c2ccccc2)CO1 (stereo not shown) [Cyclic MCF] | 0/1 | – | 0/3 | 1/1 | 0/1 | 2/5 | 2/5 | 0/4 | 0/8 | 0/4 | 0/4 | 0/4 | 1/4 | 2/4 | 3/4 | 0/4 | 0/4 | 0/4 | 0/4 | 0/4 | MES, number of animals protected / total number of animals tested ([1]; 30 mg/kg, 2.0h): 0/1; MES, number of animals protected / total number of animals tested ([1]; 100 mg/kg, 2.0h): 2/3; MES, number of animals protected / total number of animals tested ([1]; 300 mg/kg, 2.0h): 1/1; ScMET, number of animals protected / total number of animals tested (pentylenetetrazol; 30 mg/kg, 2.0h): 0/1; ScMET, number of animals protected / total number of animals tested (pentylenetetrazol; 100 mg/kg, 2.0h): 0/1; ScMET, number of animals protected / total number of animals tested (pentylenetetrazol; 300 mg/kg, 2.0h): 0/1; TOX, number of animals exhibiting toxic effects / total number of animals tested (mice; 30 mg/kg, 2.0h): 0/2; TOX, number of animals exhibiting toxic effects / total number of animals tested (mice; 100 mg/kg, 2.0h): 0/4; TOX, number of animals exhibiting toxic effects / total number of animals tested (mice; 300 mg/kg, 2.0h): 0/2; anti-seizure activity (in words) [2]: potent activity
3 | O=C1NC(=O)C(F)(c2ccccc2)CO1 (stereo not shown) [fluoro dioxo, 5-Fluoro-5-phenyl-1,3-oxazinane-2,4-dione] | 0/1 | 0/1 | 0/3 | 0/1 | 0/1 | 0/1 | 0/1 | 0/4 | 0/8 | 1/4 | 0/4 | 1/4 | 1/4 | 1/4 | 2/4 | 0/4 | 0/4 | 0/4 | 0/4 | 0/4 | anti-seizure activity (in words) ([1]; mice): inactive; MES, number of animals protected / total number of animals tested ([1]; 100 mg/kg, 4.0h): 0/3; MES, number of animals protected / total number of animals tested ([1]; 300 mg/kg, 4.0h): 0/1; ScMET, number of animals protected / total number of animals tested (pentylenetetrazol; 30 mg/kg, 4.0h): 0/1; ScMET, number of animals protected / total number of animals tested (pentylenetetrazol; 100 mg/kg, 4.0h): 0/1; ScMET, number of animals protected / total number of animals tested (pentylenetetrazol; 300 mg/kg, 4.0h): 0/1; TOX, number of animals exhibiting toxic effects / total number of animals tested (mice; 30 mg/kg, 4.0h): 0/2; TOX, number of animals exhibiting toxic effects / total number of animals tested (mice; 100 mg/kg, 4.0h): 0/4; TOX, number of animals exhibiting toxic effects / total number of animals tested (mice; 300 mg/kg, 4.0h): 0/2; anti-seizure activity (in words) [2]: strong anti-seizure activity
